Here are results for 15 molecules from PMC11048283 (Biology, 2024).

Assay [1] relates to female S. cinerearia. As to the kind of experiment: Two-choice oviposition preference assay. The conditions noted are these: 100 μg in paraffin oil vs solvent control; eggs counted after 48 h. Format: in vivo, Semiothisa cinerearia. On the procedure:
The oviposition preference of female S. cinerearia for the ScinGOBP2 ligands was assessed in a screened enclosure (length/width/height = 86 cm:46 cm:48 cm). To ensure mating of all the female moths, newly emerged males and females were cohabitated in a rearing enclosure (30 cm × 30 cm × 30 cm) at a sex ratio of 1:2 for a period of 2 days. Mated females for subsequent experiments were randomly selected from this enclosure. Each screened cage housed five gravid females. For adult nourishment, a small Petri dish containing 10% honey solution was positioned at the cage’s base center. Test compounds (100 μg, diluted in paraffin oil) or the solvent control (paraffin oil) were applied to a cotton ball, which was then affixed to the opposite inner sides of the cage. After 48 h, the number of eggs deposited on the gauze on both the treatment and control sides was counted. The oviposition preference index was determined using the formula (T − C)/(T + C), where T represents the egg count on the treatment side and C represents the count on the control side. Each experiment was replicated eight times.

In assay [2] the target is ScinGOBP2 (Semiothisa cinerearia, UniProt A0A889XLB8). Kind of assay: Fluorescence-based competitive binding assay with 1-NPN probe. As for the experimental part: A total of 27 volatile compounds were selected for a fluorescence-based competitive binding assay based on previously reported information for S. cinerearia host plants. This experiment was performed on a spectrofluorometer F-380 (Tianjin, China) using slits of 10 nm and a light path of 1 cm. The fluorescent probe N-phenyl-1-naphthylamine (1-NPN) was excited at 337 nm, and emissions were recorded between 390 and 530 nm. The affinity of 1-NPN for ScinGOBP2 was measured by titrating a 2 μM solution of the protein with aliquots of 1 mM 1-NPN in methanol to final concentrations of 1–16 μM. The dissociation constants of 1-NPN and the proteins were calculated using the software GraphPad Prism 8.0. Competitive binding was measured via the titration of the protein/1-NPN (both at 2 μM) mixture by adding aliquots of 1 mM of methanol solution of ligand to final concentrations of 2–30 μM. Dissociation constants of the competitors were calculated using the equation KD = IC50/(1 + [1-NPN]/K1-NPN), where IC50 represents the ligand concentration achieving a 50% decrease in 1-NPN’s initial fluorescence intensity, [1-NPN] represents the free concentration of 1-NPN, and K1-NPN represents the dissociation constant of the complex ScinGOBP2/1-NPN.

Assay [3] relates to S. cinerearia antennae. Kind of assay: Electroantennogram (EAG) recordings. The arrangement: species or system Semiothisa cinerearia. The conditions noted are these: 10 μL of 10 μg/μL in paraffin oil, control subtracted, n = 12. As for the experimental part: Electroantennogram recordings were carried out to measure the antennal responses of S. cinerearia to ScinGOBP2 ligands. The antennae of S. cinerearia adults were carefully removed from the base, and the tips were carefully cut off. The prepared antennae were affixed to electrode holders using conductive electrode gel. Subsequently, a 10 μL aliquot of the test compound (10 μg/μL, diluted in paraffin oil) was applied to a strip of filter paper. This strip was then placed into a 1000 µL pipette tip, serving as a cartridge. The test cartridge was connected to a stimulus controller (CS-55; Syntech, Kirchzarten, Germany) that delivered a 0.5 s stimulus every 30 s at a constant flow rate of 10 mL/s. Antennal signals were recorded using an EAG Pro system (Syntech). In all the experiments, antennae were exposed to a solvent control (paraffin oil) at the beginning and end of a series of sample measurements. Test stimuli were presented in a randomized sequence, interspersed between two control puffs. The EAG responses to the test odors were adjusted by subtracting the mean amplitude of the two control signals. EAG responses were measured from a cohort of twelve insects, each with different antennae (n = 12).

Assay [4] relates to AipsGOBP2. The arrangement: method as in PMID 29778539. The note with it: cited from earlier work.
Assay [5] has as its system OachGOBP2. Set-up: method as in PMID 36975901. The note with it: cited from earlier work.
[6] abbreviates: KD, competitive displacement of 1-NPN, protein/1-NPN both at 2 μM, ligand 2–30 μM, KD = IC50/(1 + [1-NPN]/K1-NPN), mean ± SE.
Setting [7] is: competitive displacement of 1-NPN, protein/1-NPN both at 2 μM, ligand 2–30 μM, KD = IC50/(1 + [1-NPN]/K1-NPN), mean ± SE, read-out: KD.

Entries after “also recorded” stand apart in the source; their conditions may differ. Like-named read-outs stand apart in the source and are kept apart here. A value given as a limit tells only on which side of the number the result lay.

Chain of ScinGOBP2 (A0A889XLB8 entry or part of it): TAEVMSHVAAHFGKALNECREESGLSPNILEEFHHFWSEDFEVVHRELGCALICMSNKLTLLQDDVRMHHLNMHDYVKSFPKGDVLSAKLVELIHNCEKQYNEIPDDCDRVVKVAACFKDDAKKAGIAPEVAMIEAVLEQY

On to `C=C(C)[C@H]1CC=C(C)CC1` [Dipentene], for which the “Oviposition preference of mated females” value in assay [1] is “deter S. cinerearia from ovipositing; also recorded: marked repellent behavioral responses”. Besides, the Kd in assay [2] (setting [6]) is 14.9 ± 0.77 µM. In addition, the “EAG mean response value, females” value in assay [3] (female antennae) was found to be 0.086 mV. Regarding `CC/C=C\CCOC(=O)CCCC` [cis-3-Hexenyl n-valerate], the “Oviposition preference of mated females” value in assay [1] is reported as “significant preference for laying eggs; also recorded: significant attractant behavioral responses”. Further, the Kd in assay [2] (setting [7]) was found to be 6.55 ± 0.18 µM. In the case of `CC/C=C\CCO` [cis-3-hexen-1-ol], the “binding affinity for AipsGOBP2” value in assay [4] is “high binding affinity”. Take `c1ccc(Nc2cccc3ccccc23)cc1` [1-NPN, N-phenyl-1-naphthylamine, reference compound]: binding in assay [2] (dissociation constant (KD) for the ScinGOBP2/1-NPN complexes, direct titration of 2 μM protein with 1-NPN 1–16 μM) was characterised by a dissociation constant (Kd) of 2.27 µM. As to `CCCCCCCCCC=O` [Decanal], the “Oviposition preference of mated females” value in assay [1] was “significant preference for laying eggs; also recorded: significant attractant behavioral responses”. The Kd in assay [2] (setting [7]) came to 5.07 ± 0.27 µM. Besides, the “EAG mean response value, males” value in assay [3] (male antennae) came to 0.063 mV. As to `CCCCOC(=O)c1ccccc1C(=O)OCCCC` [dibutyl phthalate], the “binding affinity for AipsGOBP2” value in assay [4] was “high binding affinity”. Take `CC(C)=CCC/C(C)=C/CC/C(C)=C/CO` [farnesol]: the “binding affinity for OachGOBP2” value in assay [5] is listed as “high binding affinity”.

Regarding `C=CCCCCCCC` [1-Nonene], the “Oviposition preference of mated females” value in assay [1] was “deter S. cinerearia from ovipositing; also recorded: marked repellent behavioral responses”. Besides, the Kd in assay [2] (setting [6]) was 12.2 ± 0.44 µM; in assay [2] (competitive displacement of 1-NPN, protein/1-NPN both at 2 μM, ligand 2–30 μM, KD = IC50/(1 + [1-NPN]/K1-NPN), mean ± SE) it was less than 15 µM. Regarding `CC1=CC[C@H](C(C)C)C=C1` [α-phellandrene], the “binding affinity for OachGOBP2” value in assay [5] is reported as “high binding affinity”.

With `CC1=CCC2CC1C2(C)C` (stereo not drawn) [α-Pinene], in assay [1], the “Oviposition preference of mated females” value was “significant preference for laying eggs; also recorded: significant attractant behavioral responses”. Further, the Kd in assay [2] (setting [6]) was 9.41 ± 0.28 µM. For `C=C1CCC2CC1C2(C)C` (stereo not drawn) [β-Pinene] the same measures were “deter S. cinerearia from ovipositing; also recorded: marked repellent behavioral responses” and 13.2 ± 0.19 µM.

Turning to `CCCCCCCC/C=C\CCCCCCCC(=O)O` [oleic acid], the “binding affinity for AipsGOBP2” value in assay [4] is “high binding affinity”. For `C=C1CC/C=C(\C)CC[C@@H]2[C@@H]1CC2(C)C` [β-caryophyllene], in assay [4], the “binding affinity for AipsGOBP2” value is reported as “high binding affinity”. As to `CC(=O)CC/C=C(\C)CCC=C(C)C` [Geranyl acetone], in assay [1], the “Oviposition preference of mated females” value is recorded as “deter S. cinerearia from ovipositing; also recorded: marked repellent behavioral responses”. Also, in assay [2] (setting [7]), the Kd was found to be 2.21 ± 0.17 µM. Consider `CC/C=C\CCOC(=O)CCC` [cis-3-Hexenyl butyrate], for which, in assay [1], the “Oviposition preference of mated females” value is recorded as “significant preference for laying eggs; also recorded: significant attractant behavioral responses”. The Kd in assay [2] (setting [7]) stood at 14.17 ± 0.04 µM.
